# Reference: the supplement of paper PMC9663587
# Experiments:
# BSJ-03-123 [1] = compound: T1, CC(=O)c1c(C)c2cnc(Nc3ccc(N4CCN(CCOCCOCCOCCNC(=O)COc5cccc6c5C(=O)N(C5CCC(=O)NC5=O)C6=O)CC4)cn3)nc2n(C2CCCC2)c1=O [BSJ-03-123]
# Ceritinib/LDK378 = compound: Cc1cc(Nc2ncc(Cl)c(Nc3ccccc3S(=O)(=O)C(C)C)n2)c(OC(C)C)cc1C1CCNCC1 [Ceritinib/LDK378]
# Taselisib/GDC0032 = compound: Cc1nc(-c2cn3c(n2)-c2ccc(-c4cnn(C(C)(C)C(N)=O)c4)cc2OCC3)n(C(C)C)n1 [Taselisib/GDC0032]
# Dasatinib = compound: Cc1nc(Nc2ncc(C(=O)Nc3c(C)cccc3Cl)s2)cc(N2CCN(CCO)CC2)n1 [Dasatinib]
# [2] = compound: CC(=O)Nc1cccc(-n2c(=O)n(C3CC3)c(=O)c3c(Nc4ccc(I)cc4F)n(C)c(=O)c(C)c32)c1
# Vorinostat = compound: O=C(CCCCCCC(=O)Nc1ccccc1)NO [Vorinostat]
# [3] = compound: CO[C@@H](C)Cn1c(=O)n(C)c2cnc3ccc(-c4cncc(C(C)(C)O)c4)cc3c21
# Neratinib/HKI272 [4] = compound: T2, CCOc1cc2ncc(C#N)c(Nc3ccc(OCc4ccccn4)c(Cl)c3)c2cc1NC(=O)/C=C/CN(C)C [Neratinib/HKI272]
# Rucaparib = compound: CNCc1ccc(-c2[nH]c3cc(F)cc4c3c2CCNC4=O)cc1 [Rucaparib]
# BSJ-01-175 = compound: CN(C)C/C=C/C(=O)Nc1ccc(O[C@@H]2CCC[C@@H](Nc3ncc(Cl)c(-c4c[nH]c5ccccc45)n3)C2)cc1 [BSJ-01-175]
# AZD2014 = compound: CNC(=O)c1cccc(-c2ccc3c(N4CCOC[C@@H]4C)nc(N4CCOC[C@@H]4C)nc3n2)c1 [AZD2014]
# Doxorubicin = compound: COc1cccc2c1C(=O)c1c(O)c3c(c(O)c1C2=O)C[C@@](O)(C(=O)CO)C[C@@H]3O[C@H]1C[C@H](N)[C@H](O)[C@H](C)O1 [Doxorubicin]
# Volasertib/BI6727 = compound: CC[C@@H]1C(=O)N(C)c2cnc(Nc3ccc(C(=O)N[C@H]4CC[C@H](N5CCN(CC6CC6)CC5)CC4)cc3OC)nc2N1C(C)C [Volasertib/BI6727]
# [5] = compound: CC(=O)c1c(C)c2cnc(Nc3ccc(N4CCNCC4)cn3)nc2n(C2CCCC2)c1=O
# INK128/MLN0128 = compound: CC(C)n1nc(-c2ccc3oc(N)nc3c2)c2c(N)ncnc21 [INK128/MLN0128]
# THZ531 [6] = compound: T3, CN(C)C/C=C/C(=O)Nc1ccc(C(=O)N2CCC[C@@H](Nc3ncc(Cl)c(-c4c[nH]c5ccccc45)n3)C2)cc1 [THZ531]
# BSJ-03-123 [7] = compound: T1, BSJ-03-123; experiment: increase in dead-cell fraction, 72 h; higher = more death;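 also: breast cancer cell lines in 384-well plates, stained with Hoechst plus LIVE/DEAD far red dye and imaged, cells above an LDR intensity threshold counted dead, Hoechst-negative corpses included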
# Neratinib/HKI272 [8] = compound: T2, Neratinib/HKI272; experiment: as above
# [9] = compound: CCc1cnn2c(NCc3ccc[n+]([O-])c3)cc(N3CCCC[C@H]3CCO)nc12; experiment: as above
# YKL-5-124 = compound: C=CC(=O)Nc1ccc(C(=O)Nc2[nH]nc3c2CN(C(=O)N[C@H](CN(C)C)c2ccccc2)C3(C)C)cc1 [YKL-5-124]; experiment: as above
# THZ1 = compound: CN(C)C/C=C/C(=O)Nc1ccc(C(=O)Nc2cccc(Nc3ncc(Cl)c(-c4c[nH]c5ccccc45)n3)c2)cc1 [THZ1]; experiment: as above
# THZ531 [10] = compound: T3, THZ531; experiment: as above
# 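For GR50, 72 h in this document: breast cancer and non-malignant breast epithelial cell lines, Deep Dye Drop or Dye Drop imaging, nine half-log doses, GR normalized to time-zero plates and DMSO-only controls.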
cell line,measurement,setting,value
CAMA1,"GR50, 72 h",BSJ-03-123 [1],0.00879 µM
same,"GR50, 72 h",Ceritinib/LDK378,1.8 µM
same,"GR50, 72 h",Taselisib/GDC0032,1.77 µM
same,"GR50, 72 h",Dasatinib,> 10 µM
same,"GR50, 72 h",[2],> 1 µM
same,"GR50, 72 h",Vorinostat,0.884 µM
same,"GR50, 72 h",[3],< 0.001 µM
same,"GR50, 72 h",Neratinib/HKI272 [4],2.83 µM
same,"GR50, 72 h",Rucaparib,> 10 µM
same,"GR50, 72 h",BSJ-01-175,0.101 µM
same,"GR50, 72 h",AZD2014,< 0.001 µM
same,"GR50, 72 h",Doxorubicin,0.00747 µM
same,"GR50, 72 h",Volasertib/BI6727,0.00782 µM
same,"GR50, 72 h",[5],0.0742 µM
same,"GR50, 72 h",INK128/MLN0128,0.00961 µM
same,"GR50, 72 h",THZ531 [6],0.139 µM
same,increase in dead-cell fraction,BSJ-03-123 [7]; 0.001 µM,-0.0067
same,increase in dead-cell fraction,BSJ-03-123 [7]; 0.003162 µM,-0.0023
same,increase in dead-cell fraction,BSJ-03-123 [7]; 0.01 µM,0.0007
same,increase in dead-cell fraction,BSJ-03-123 [7]; 0.03162 µM,-0.0025
same,increase in dead-cell fraction,BSJ-03-123 [7]; 0.1 µM,0.0035
same,increase in dead-cell fraction,BSJ-03-123 [7]; 0.3162 µM,-0.0021
same,increase in dead-cell fraction,BSJ-03-123 [7]; 1 µM,0.0045
same,increase in dead-cell fraction,BSJ-03-123 [7]; 3.162 µM,-0.0077
same,increase in dead-cell fraction,BSJ-03-123 [7]; 10 µM,0.0255
same,increase in dead-cell fraction,Neratinib/HKI272 [8]; 0.0003162 µM,0.0013
same,increase in dead-cell fraction,Neratinib/HKI272 [8]; 0.001 µM,0.0021
same,increase in dead-cell fraction,Neratinib/HKI272 [8]; 0.003162 µM,-0.0002
same,increase in dead-cell fraction,Neratinib/HKI272 [8]; 0.01 µM,0.0022
same,increase in dead-cell fraction,Neratinib/HKI272 [8]; 0.03162 µM,0.0081
same,increase in dead-cell fraction,Neratinib/HKI272 [8]; 0.1 µM,0.0011
same,increase in dead-cell fraction,Neratinib/HKI272 [8]; 0.3162 µM,0.0067
same,increase in dead-cell fraction,Neratinib/HKI272 [8]; 1 µM,0.0021
same,increase in dead-cell fraction,Neratinib/HKI272 [8]; 3.162 µM,0.0342
same,increase in dead-cell fraction,[9]; 0.0001 µM,-0.0004
same,increase in dead-cell fraction,[9]; 0.0003162 µM,-0.0044
same,increase in dead-cell fraction,[9]; 0.001 µM,0.0031
same,increase in dead-cell fraction,[9]; 0.003162 µM,0.0113
same,increase in dead-cell fraction,[9]; 0.01 µM,0.0533
same,increase in dead-cell fraction,[9]; 0.03162 µM,0.153
same,increase in dead-cell fraction,[9]; 0.1 µM,0.46
same,increase in dead-cell fraction,[9]; 0.3162 µM,0.518
same,increase in dead-cell fraction,[9]; 1 µM,0.56
same,increase in dead-cell fraction,YKL-5-124; 0.001 µM,0.0009
same,increase in dead-cell fraction,YKL-5-124; 0.003162 µM,0.0059
same,increase in dead-cell fraction,YKL-5-124; 0.01 µM,0.0122
same,increase in dead-cell fraction,YKL-5-124; 0.03162 µM,0.0047
same,increase in dead-cell fraction,YKL-5-124; 0.1 µM,0.006
same,increase in dead-cell fraction,YKL-5-124; 0.3162 µM,0.0148
same,increase in dead-cell fraction,YKL-5-124; 1 µM,-0.0034
same,increase in dead-cell fraction,YKL-5-124; 3.162 µM,0.01
same,increase in dead-cell fraction,YKL-5-124; 10 µM,0.322
same,increase in dead-cell fraction,THZ1; 0.0001 µM,-0.0002
same,increase in dead-cell fraction,THZ1; 0.0003162 µM,0.0023
same,increase in dead-cell fraction,THZ1; 0.001 µM,-0.002
same,increase in dead-cell fraction,THZ1; 0.003162 µM,-0.0017
same,increase in dead-cell fraction,THZ1; 0.01 µM,0.0023
same,increase in dead-cell fraction,THZ1; 0.03162 µM,0.0135
same,increase in dead-cell fraction,THZ1; 0.1 µM,0.0187
same,increase in dead-cell fraction,THZ1; 0.3162 µM,0.0397
same,increase in dead-cell fraction,THZ1; 1 µM,0.187
same,increase in dead-cell fraction,THZ531 [10]; 0.0001 µM,0.001
same,increase in dead-cell fraction,THZ531 [10]; 0.0003162 µM,-0.0014
same,increase in dead-cell fraction,THZ531 [10]; 0.001 µM,-0.0002
same,increase in dead-cell fraction,THZ531 [10]; 0.003162 µM,-0.005
same,increase in dead-cell fraction,THZ531 [10]; 0.01 µM,0.0035
same,increase in dead-cell fraction,THZ531 [10]; 0.03162 µM,0.0054
same,increase in dead-cell fraction,THZ531 [10]; 0.1 µM,0.0126
same,increase in dead-cell fraction,THZ531 [10]; 0.3162 µM,0.0499
same,increase in dead-cell fraction,THZ531 [10]; 1 µM,0.189
